Data as given in US8309522B2, “Neuromedin and FN-38 peptides for treating psychiatric diseases” (Amylin Pharmaceuticals, LLC, priority 2007, dated 2012).
Ends that are not written are not given here.

Columns and labels:
mice [1] = experiment: Stress-induced hyperthermia (SIH) assay; format: in vivo; conditions: 60 minutes before the assay, FIG. 1
Description: (§1) Animal behavior assays were performed to test for anxiolytic and antipsychotic effects of FN-38 (SEQ ID NO:5) administration. […] These specific behavioral tests are known to be sensitive to anxiolytic or antipsychotic drugs. For these assays, FN-38 was administered to mice at doses ranging from 0.1 to 10 mg/kg, intraperitoneally, and their performance in the assay was assessed.
Body temperature and emotionality are correlated in humans and stress commonly induces an increase in body temperature (hyperthermic response) in rodents. The thermic response to stress is commonly used as an indication of enhanced emotionality or anxiety in rodents and stress-induced hyperthermia (SIH) in mice is considered to have predictive validity for certain human anxiety/stress disorders. The SIH assay assesses the effect of anxiolytics or test agents on SIH and measures the intrinsic effects of these drugs on core body temperature of the animal. See, for example, Zethof et al., 1994, Physiol. Behav. 55:109-115. Anxiolytics blunt the increase in body temperature, or hyperthermic response, following stress exposure. Buspirone is a partial 5-HT1A agonist and a known anxiolytic agent. […] The stress from the first measurement induces hyperthermia which was measured by the second temperature measurement. […]

mice [2] = experiment: Prepulse inhibition (PPI) test; format: in vivo; conditions: 78 and 82 dB prepulse, FIG. 4
Description: as §1
The prepulse inhibition (PPI) test measures the reflex response to externally applied auditory stimulation (acoustic startle response) and is related to the deficiency in sensory-motor gating capacity seen in schizophrenia. The acoustic startle reflex is a very basic response to strong exteroceptive stimuli and is widely used to assess sensorimotor reactivity in animals and humans. A weak auditory stimulus (prepulse, 74-82 dB) given prior to the strong acoustic stimulus (120 dB) blunts the startle response. This blunting of the startle response is referred to as prepulse inhibition. See, for example, Conti et al., 2005, Behavioral Neuroscience 119:1052-1060. […]
Mice were injected with the test agent (FN-38 (SEQ ID NO:5) at 0.1, 1.0 or 10 mg/kg, or vehicle (water)) […] to the test or with haloperidol at 1 mg/kg or vehicle (10% DMSO) 30 minutes prior to the test. […] The amount of the animal's “reaction” to the strong stimulus was recorded. […]

mice [3] = experiment: Phencyclidine (PCP)-induced locomotion test; format: in vivo; conditions: FN-38 10 mg/kg, 15-30 minutes prior to 5 mg/kg PCP; activity recorded for 60 minutes; FIG. 3
Description: as §1
The PCP-induced locomotion test is used with open field activity chambers and measures locomotion, rearing, and stereotypic activity under amphetamine/PCP-induced conditions. The test has predictive validity for some antipsychotic drugs that normalize the hyperactivity and stereotypic behavior seen with amphetamine and PCP. See, for example, Williams et al., 2006, Prog. Neuropsychopharmacol. Biol. Psychiatry, 30:239-243. Mice were injected with the test agent (FN-38 (SEQ ID NO:5) at 0.1, 1.0 or 10 mg/kg, or vehicle (water)) 15-30 minutes prior injection with 5 mg/kg PCP. The animals were then placed in the center of an open field and activity was recorded for 60 minutes.

mice [4] = experiment: Marble burying; format: in vivo; conditions: FN-38 10 mg/kg intraperitoneally, 15-30 minutes prior to the test; statistically significant; FIG. 2
Description: as §1
Marble burying is used as a model for both anxiety and obsessive-compulsive disorder. See, for example, Chaki et al., 2003, J. Pharmacol. Exp. Ther. 304:818-826. Anxiolytics suppress marble burying activity. Benzodiazepine chlordiazepoxide (CDP) is a known anxiolytic agent. Mice were injected with the test agent (FN-38 (SEQ ID NO:5) at 0.1, 1.0 or 10 mg/kg, 15 mg/kg CDP, or vehicle (water)) 15-30 minutes prior to the test. Mice were then placed individually in clean cages containing 5-cm of hard wood bedding and 20 marbles spaced evenly in rows of five. The number of marbles buried in 30 minutes was recorded. Results of this assay are shown in FIG. 2 where * is P<0.05 vs. vehicle control. […] These reductions in marble burying were statistically significant.

rats = conditions: central administration to rats; cited from earlier work

## O=C1CC2(CCCC2)CC(=O)N1CCCCN1CCN(c2ncccn2)CC1 [buspirone, reference compound]
Mice [1]; 15 mg/kg buspirone, positive control
  stress-induced hyperthermia (Delta Temperature): blunted the SIH response

## O=C(CCCN1CCC(O)(c2ccc(Cl)cc2)CC1)c1ccc(F)cc1 [halperidol, haloperidol, reference compound]
Mice [2]; haloperidol at 1 mg/kg, 30 minutes prior to the test, positive control
  percent of prepulse inhibition: increased the percent of prepulse inhibition

## FLFHYSKTQKLGKSNVVEELQSPFASQSRGYFLFRPRN (FLFHYSKTQKLGKSNVVEELQSPFASQSRGYFLFRPRN-NH2; listed as Homo sapiens) [FN-38]
Mice [2]; FN-38 10 mg/kg, 120 dB stimulus
  percent of prepulse inhibition: increased the percent of prepulse inhibition
Mice [3]
  PCP-induced hyper-locomotion (total distance traveled: total, central, and peripheral): significantly reduced this hyper-locomotion response
Mice [1]; FN-38 10 mg/kg intraperitoneally, P<0.05 vs. vehicle control
  stress-induced hyperthermia (Delta Temperature): blunted the SIH response
Mice [4]
  number of marbles buried in 30 minutes: reduced the number of marbles buried

## neuromedin U (YKVNEYQGPVAPSGGFFLFRPRN-NH2; UniProt P12760 144-166, looked up) [NMU, neuromedin U, centrally administered to rats in cited literature]
rats
  food intake: inhibited food intake
